US9546176B2, “Small molecule bicyclic and tricyclic CFTR correctors” (DISCOVERYBIOMED, INC., priority 2012, dated 2017)
pEC50: −log10 of the molar value.

Each compound was assayed against T1, delF508-CFTR (Homo sapiens, UniProt P13569, DEL508-508) (assay: SPQ halide-sensitive fluorescence dye assay for rescue of halide efflux (8-point concentration-response)). Conditions: not given.
T1 construct: endogenous in cells; host or cells: CFBE41o- human CF bronchial epithelial cells (delF508 homozygous)
T1 sequence (P13569 with tags, fused parts or gaps DEL508-508): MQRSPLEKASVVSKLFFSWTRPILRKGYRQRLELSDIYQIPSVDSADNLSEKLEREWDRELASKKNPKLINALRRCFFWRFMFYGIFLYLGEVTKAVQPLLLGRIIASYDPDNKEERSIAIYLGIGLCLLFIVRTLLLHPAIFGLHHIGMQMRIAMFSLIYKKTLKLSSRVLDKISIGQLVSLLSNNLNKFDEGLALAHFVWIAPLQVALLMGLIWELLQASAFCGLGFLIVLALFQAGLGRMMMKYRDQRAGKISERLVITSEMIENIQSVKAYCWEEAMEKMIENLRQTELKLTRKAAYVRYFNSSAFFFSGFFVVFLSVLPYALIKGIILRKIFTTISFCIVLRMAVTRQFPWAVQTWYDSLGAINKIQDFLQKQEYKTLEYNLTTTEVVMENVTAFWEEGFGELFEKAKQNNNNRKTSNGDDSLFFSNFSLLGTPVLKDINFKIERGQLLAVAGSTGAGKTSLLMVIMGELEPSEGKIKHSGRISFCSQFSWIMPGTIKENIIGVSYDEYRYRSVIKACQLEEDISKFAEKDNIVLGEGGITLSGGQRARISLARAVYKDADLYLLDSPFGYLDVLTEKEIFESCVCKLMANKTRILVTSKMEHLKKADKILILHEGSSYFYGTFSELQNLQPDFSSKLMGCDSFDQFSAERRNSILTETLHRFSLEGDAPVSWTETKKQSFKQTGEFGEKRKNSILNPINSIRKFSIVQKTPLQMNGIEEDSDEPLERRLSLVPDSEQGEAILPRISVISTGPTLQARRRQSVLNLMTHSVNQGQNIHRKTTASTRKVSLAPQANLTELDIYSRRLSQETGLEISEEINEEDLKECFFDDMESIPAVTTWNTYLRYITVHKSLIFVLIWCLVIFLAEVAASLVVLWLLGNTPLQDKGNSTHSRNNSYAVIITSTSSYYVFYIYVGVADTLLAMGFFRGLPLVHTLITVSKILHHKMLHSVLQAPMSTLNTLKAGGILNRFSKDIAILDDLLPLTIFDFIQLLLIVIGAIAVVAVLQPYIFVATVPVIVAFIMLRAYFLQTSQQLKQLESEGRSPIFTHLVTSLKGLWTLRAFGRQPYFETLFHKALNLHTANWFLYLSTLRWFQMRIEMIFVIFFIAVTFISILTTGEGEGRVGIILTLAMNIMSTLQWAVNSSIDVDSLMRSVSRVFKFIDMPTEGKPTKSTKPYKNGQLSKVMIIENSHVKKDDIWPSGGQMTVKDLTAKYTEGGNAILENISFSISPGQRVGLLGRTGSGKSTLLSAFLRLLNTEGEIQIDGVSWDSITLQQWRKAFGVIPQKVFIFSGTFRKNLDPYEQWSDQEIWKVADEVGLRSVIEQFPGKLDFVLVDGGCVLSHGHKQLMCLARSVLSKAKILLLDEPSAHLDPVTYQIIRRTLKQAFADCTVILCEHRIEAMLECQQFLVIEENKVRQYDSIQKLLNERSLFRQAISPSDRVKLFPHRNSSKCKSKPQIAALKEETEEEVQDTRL
Format: cell-based
Procedure: The method of profiling can include detecting the rescue of halide efflux from a cell. The step of detecting a rescue of halide efflux from the cell can be monitored using the halide quenched dye 6-methoxy-N-(3-sulfopropyl)-quinolinium (SPQ, Molecular Probes Inc., Eugene, Oreg.). In this method, cells are treated with a compound as described herein for a period of time (e.g., 48 hours). The rescue or correction of halide efflux is then detected using the SPQ assay with the halide dye. […] Optionally, the halide efflux is chloride efflux. The method of screening can further comprise performing the method with multiple concentrations of the compound.
The compounds were initially subjected to the SPQ halide-sensitive fluorescence dye profiling assay for rescue or correction of membrane chloride ion permeability or transport with an 8-point concentration-response curve. The EC50 values for the compounds described herein were determined using SPQ (Table 1). The ΔSPQ value was calculated by determining the difference between the maximum and minimum SPQ values for the compounds.
To perform the SPQ high throughput screening assay, CFBE41o-cells were seeded into 96-well microtiter plates and were loaded with the fluorescent halide-sensitive dye, SPQ, in serum-containing culture medium. Certain wells were loaded with known positive control corrector molecules, including the industry standard Vertex 809 (VX-809; Vertex Pharmaceuticals, Cambridge, Mass.) at 3 μM, which is the maximally effective profiling dose for VX-809. The test compounds were loaded into wells and were tested in triplicate wells at a 10 μM dose and incubated over 48 hours at room temperature. During the 48 hour period, SPQ was absorbed. Plates were washed in a sodium chloride (NaCl) based Ringer and read once over two minutes to set the baseline SPQ fluorescence activity. Then, NaCl was replaced by sodium nitrate (NaNO3) based Ringer. The plates were read twice over four minutes. The primary high throughput screen (HTS) data were analyzed to detect any function of rescued delF508-CFTR under basal conditions. The plate was read up to two times to complete the SPQ HTS assay.

SMILES	pEC50
CCCCn1c(C)cn2c3c(=O)n(CCC)c(=O)n(C)c3nc12 [Compound I-2]	< 4.52

Same assay, conditions: CFBE41o- cells, 48 h

SMILES	ΔSPQ (difference between maximum and minimum SPQ values)	SPQ EC50
CCn1c(=O)c2c(nc3n(-c4cccc(Cl)c4C)c(C)cn23)n(C)c1=O [Compound I-23]	13290 RFU	
Cc1cn2c3c(=O)n(C)c(=O)n(C)c3nc2n1CC[N+](C)(C)C [Compound A-9]		No effect
Cn1c(=O)c2nc(NCCO)[nH]c2n(C)c1=O [Compound B-8]		No effect
C=CCn1c(=O)c2c(nc3n(C(C)CC)c(C)c(C)n23)n(C)c1=O (stereo not drawn) [Compound I-4]	11108 RFU	
CCCCn1c(C)cn2c3c(=O)n(CCC)c(=O)n(C)c3nc12 [Compound I-2]	3102 RFU	
CCn1c(=O)c2c(nc3n(-c4ccc(C)cc4)c(C)c(C)n23)n(C)c1=O [Compound I-8]	6975 RFU	
CCn1c(=O)c2c(nc3n(-c4ccccc4)c(C)c(C)n23)n(C)c1=O [Compound I-10]	4005 RFU	
C=CCn1c(=O)c2c(nc3n(CCC)c(C)cn23)n(C)c1=O [Compound I-1]	3801 RFU	
Cc1ccc(CN2CCN(c3nc4c(=O)n(C)c(=O)n(C)c4[nH]3)CC2)cc1 [Compound B-7.5]		No effect
Cn1c(=O)c2nc(N3CCN(c4ncccn4)CC3)[nH]c2n(C)c1=O [Compound B-5]		No effect
Cn1c(=O)c2[nH]c(NCCN)nc2n(C)c1=O [Compound B-11]		No effect
Cn1c(=O)c2[nH]c(NCCSc3ncccn3)nc2n(C)c1=O [Compound B-12]		No effect
CCCn1c(=O)c2c(nc3n(Cc4ccco4)c(C)c(C)n23)n(C)c1=O [Compound I-32]	2989 RFU	

Results, then the compound that gave them:

ΔSPQ (difference between maximum and minimum SPQ values)	SPQ EC50	SMILES
3935 RFU		CCn1c(=O)c2c(nc3oc(C(C)(C)C)cn32)n(C)c1=O [Compound II-3]
8170 RFU		CCCn1c(=O)c2c(nc3n(C(C)CC)c(C)cn23)n(C)c1=O (stereo not drawn) [Compound I-37]
3118 RFU		Cc1cccc(N2CC(C)Cn3c2nc2c3c(=O)[nH]c(=O)n2C)c1 (stereo not drawn) [IV-8]
4528 RFU		CCOC(=O)C1CCCN(c2nc3c(c(=O)n(C)c(=O)n3C)n2CC)C1 (stereo not drawn) [III-5]
3796 RFU		CC1=NNc2nc3c(c(=O)n(CCCc4ccccc4)c(=O)n3C)n2C1 [Compound V-24]
7507 RFU		C/C=C/Cn1c(=O)c2c(nc3n2CC(C)=NN3C(C)C)n(C)c1=O [Compound V-18]
2459 RFU		CC1CC(=O)c2cnc3c(c2C1)c(=O)[nH]c(=O)n3Cc1ccco1 (stereo not drawn) [VI-1]
13312 RFU		Cn1c(=O)n(Cc2ccccc2)c(=O)c2c1nc1oc(C(C)(C)C)cn12 [Compound II-2]
3614 RFU		COc1ccc(N2CCCn3c2nc2c3c(=O)n(C)c(=O)n2C)cc1 [IV-4]
3397 RFU		CCn1c(=O)c2c(nc3n2CCN3Cc2ccco2)n(C)c1=O [Compound I-54]
13989 RFU		CCn1c(=O)c2c(nc3n(-c4cccc(OC)c4)c(C)cn23)n(C)c1=O [Compound I-35]
2183 RFU		C/C=C/Cn1c(=O)c2c(nc3n(C(C)CC)c(C)c(C)n23)n(C)c1=O (stereo not drawn) [Compound I-56]
2122 RFU		COc1cccc(N2CC(C)Cn3c2nc2c3c(=O)n(C)c(=O)n2C)c1 (stereo not drawn) [IV-5]

Same assay, conditions: CFBE41o- cells, 48 h; read-out: SPQ EC50

SMILES	pEC50
CCn1c(=O)c2c(nc3n(-c4cccc(Cl)c4C)c(C)cn23)n(C)c1=O [Compound I-23]	4.98
C=CCn1c(=O)c2c(nc3n(C(C)CC)c(C)c(C)n23)n(C)c1=O (stereo not drawn) [Compound I-4]	5.27
CCn1c(=O)c2c(nc3n(-c4ccc(C)cc4)c(C)c(C)n23)n(C)c1=O [Compound I-8]	5.44
CCn1c(=O)c2c(nc3n(-c4ccccc4)c(C)c(C)n23)n(C)c1=O [Compound I-10]	5.40
C=CCn1c(=O)c2c(nc3n(CCC)c(C)cn23)n(C)c1=O [Compound I-1]	4.75
CCCn1c(=O)c2c(nc3n(Cc4ccco4)c(C)c(C)n23)n(C)c1=O [Compound I-32]	5.48

Other lines, results leading:

pEC50	SMILES
5.07	CCn1c(=O)c2c(nc3oc(C(C)(C)C)cn32)n(C)c1=O [Compound II-3]
4.97	CCCn1c(=O)c2c(nc3n(C(C)CC)c(C)cn23)n(C)c1=O (stereo not drawn) [Compound I-37]
4.92	Cc1cccc(N2CC(C)Cn3c2nc2c3c(=O)[nH]c(=O)n2C)c1 (stereo not drawn) [IV-8]
4.91	CCOC(=O)C1CCCN(c2nc3c(c(=O)n(C)c(=O)n3C)n2CC)C1 (stereo not drawn) [III-5]
< 4.52	CC1=NNc2nc3c(c(=O)n(CCCc4ccccc4)c(=O)n3C)n2C1 [Compound V-24]
4.95	C/C=C/Cn1c(=O)c2c(nc3n2CC(C)=NN3C(C)C)n(C)c1=O [Compound V-18]
5.10	CC1CC(=O)c2cnc3c(c2C1)c(=O)[nH]c(=O)n3Cc1ccco1 (stereo not drawn) [VI-1]
4.98	Cn1c(=O)n(Cc2ccccc2)c(=O)c2c1nc1oc(C(C)(C)C)cn12 [Compound II-2]
4.95	COc1ccc(N2CCCn3c2nc2c3c(=O)n(C)c(=O)n2C)cc1 [IV-4]
< 4.52	CCn1c(=O)c2c(nc3n2CCN3Cc2ccco2)n(C)c1=O [Compound I-54]
4.74	CCn1c(=O)c2c(nc3n(-c4cccc(OC)c4)c(C)cn23)n(C)c1=O [Compound I-35]
6.70	C/C=C/Cn1c(=O)c2c(nc3n(C(C)CC)c(C)c(C)n23)n(C)c1=O (stereo not drawn) [Compound I-56]
5.47	COc1cccc(N2CC(C)Cn3c2nc2c3c(=O)n(C)c(=O)n2C)c1 (stereo not drawn) [IV-5]

Same assay, conditions: Trial 2

ΔSPQ	SMILES
(Trial 2: 4413) RFU	CCn1c(=O)c2c(nc3oc(C(C)(C)C)cn32)n(C)c1=O [Compound II-3]

Same assay, conditions: Trial 2; read-out: SPQ EC50

pEC50	SMILES
4.90	CCn1c(=O)c2c(nc3oc(C(C)(C)C)cn32)n(C)c1=O [Compound II-3]

Same assay, conditions: versus VX-809

potency and efficacy compared with VX-809 in SPQ assay	SMILES
superior potency and efficacy to VX-809	CCn1c(=O)c2c(nc3oc(C(C)(C)C)cn32)n(C)c1=O [Compound II-3]
superior potency and efficacy to VX-809	Cn1c(=O)n(Cc2ccccc2)c(=O)c2c1nc1oc(C(C)(C)C)cn12 [Compound II-2]
superior potency and efficacy to VX-809	C/C=C/Cn1c(=O)c2c(nc3n(C(C)CC)c(C)c(C)n23)n(C)c1=O (stereo not drawn) [Compound I-56]
